# Assay results reported in patent US20100190737A1, “COMPOSITIONS COMPRISING INOSINE AND OROTIC ACID AND METHODS OF USE THEREOF FOR THE TREATMENT OF CERTAIN HEART CONDITIONS AND ENHANCEMENT OF WORK CAPACITY” (NUTRITIONAL RESEARCH GROUP LLC, priority 2009, published 2010).
# Where “and” joins values, the source holds several entries; their conditions need not be identical. Identical values can stand only once.
# Key:
# [1] = test system: rats with experimental aortic stenosis; assay: Long term (12 month) experimental aortic stenosis; assay type: in vivo, rat; conditions: for Mortality %: 12 month study, 15 rats per group, inosine 25, potassium orotate 50 mg/kg/day from day 45 for 10.5 months, untreated stenosis 47
# Method: A 12 month study using 60 white unbred male rats with initial body weights of 110-120 g, divided into four experimental groups, each group with 15 rats. Group I included intact animals (controls); Group II—rats with experimental aortic stenosis (untreated stenosed controls); Group III rats with experimental aortic stenosis given inosine in doses of 25 mg/kg/day; and Group IV rats with experimental aortic stenosis given both inosine and an orotic acid (in the instant study potassium orotate was used, however, as the orotic acid comprises 93-95% percent of any of the orotates, the results achieved are indicative of usage of any of the orotates including the potassium orotate used herein) combination in doses of 25 and 50 mg/kg/day, respectively, intragastrically, using a metal curved tube, beginning from the 45th day after the creation date of the abdominal aortic stenosis, and continuing for 10.5 months. The abdominal aortic stenosis was produced by the method of Beznak, referred to hereinabove, modified by Kogan, referred to above.
# During the experimental period the animals in all four groups had regular measurements (recordings) of body weight and the 3-standard lead EKG-ms and 5-plane pericardial vector-cardiograms (VCG). At the beginning and end of the experimental period they also underwent tests for the endurance of a single, dosed physical exercise—forced swimming in a pool at 28-30° C., until maximally exhausted. Specifically, an animal had fixed to its tail a lead weight weighing approximately 7.5% percent of the animal's body weight became submerged due to the inability to continue swimming. At the end of the experimental period, the animals were sacrificed, and their hearts, thymuses, livers, adrenals and thyroids were weighed and their relative weights per 100 g body weight were calculated and recorded. Histological figures of sectioned cardiac muscle stained with hematoxilin-eosin were prepared by Van Hison's technique and examined for any attendant alterations in the normal histology of the heart. During the experiment, (untreated aortic stenosis) 8 of the 15 rats in Group II died, while in Group III (treated stenosis w/inosine) and Group IV (treated stenosis w/inosine and potassium orotate)—only 3 rats in each group died. […] The observed time period wherein the rats could swim were as follows: Groups I animals 45±2.0 minutes; Group II 6.5±2.1 minutes; Group III 16±1.2 minutes; and Group IV 32±4 minutes, respectively. Thus, the group receiving the combination of inosine and potassium orotate performed far better than Group II (untreated stenosis) and had doubled the work capacity of Group III (treated with inosine only). The relative weight of the heart in animals in Groups II, III and IV was higher than in Group I (control group) by 67%, 36% and 56%, respectively. (See Tables 2 A-B). The hearts of Group II animals were in the state of eccentric hypertrophy which explains the higher weight (see FIG. 5). The left ventricular wall in the animals of Group II was 8% thinner than in rats of Group I as a result of the eccentric condition. In rats of Groups III and IV the left ventricular wall was 30% and 46% thicker, respectively, than the rats in group I and they were all in the state of concentric heart hypertrophy.
# [2] = test system: chinchilla rabbits with experimental myocardial infarction; assay: Experimentally-induced myocardial infarction (coronary artery ligation); assay type: in vivo, rabbit; conditions: for NN of Animals With Necrosis: of 10 animals; for EKG Q: oral 100 mg/kg BW of each ingredient daily
# Method: Histological, light microscopic methods of investigation have been employed to study the zone of necrosis, perinecrotic zone and myocardium regions spaced from the time of infarction by 7 and 14 days after the infarction event. Dynamic electrocardiographic observation over the animals was carried out during the first day and during the following 7 and 14 days. The study of the total cross-sectional patterns of a rabbit's heart has made it possible to precisely define these zones. The first Group of 10 animals was sham-operated without treatment (Group I, positive control-Intact, no MI). […] Group II animals were without treatment (negative control-MI Control).
# [3] = test system: mice; assay: Short term (14 day) work capacity: swimming lengths within 30 minutes, hepatic glycogen; assay type: in vivo, mouse
# Method: Seventy two animals (mice) were divided into 12 groups of 6 animals each; a control group (untreated) and 11 test groups that were intragastrically administered varying daily doses of inosine, potassium orotate or an inosine plus potassium orotate combination (the “combination”) for 14 days. […] The swimming exercise consisted of forcing the animals to perform repetitive swimming in a three meter long channel until exhaustion. The level of exhaustion was determined by a count of the number of swimming lengths which each animal did within 30 minutes. A lower number of swimming lengths indicated a greater level of exhaustion, whereas a higher number of lengths indicated a greater work capacity.
smiles,measurement,setting,value
OC[C@H]1O[C@@H](n2cnc3c(O)ncnc32)[C@H](O)[C@@H]1O [inosine],EKG QRS 1½ months,[1]; 1½ months (before treatment),0.021 ± 0.004 s
same,EKG R Wave Voltage 1½ months,[1]; 1½ months (before treatment),0.38 ± 0.05 mV
same,EKG Stroke Index 1½ months,[1]; 1½ months (before treatment),47 ± 10%
same,Heart Rate 1½ months,[1]; 1½ months (before treatment),410 ± 11 beats/min
same,T Wave Voltage 1½ months,[1]; 1½ months (before treatment),0.21 ± 0.01 mV
same,Mortality %,[1],20%
same,Mortality %,[1]; listed as Inosine,20%
same,EKG QRS 12 months,[1]; 12 months,0.022 ± 0.001 s
same,EKG R Wave Voltage 12 months,[1]; 12 months,0.9 ± 0.09 mV
same,EKG Stroke Index 12 months,[1]; 12 months,34 ± 1.2%
same,Heart Rate 12 months,[1]; 12 months,420 ± 16 beats/min
same,T Wave Voltage 12 months,[1]; 12 months,0.29 ± 0.05 mV
same,left ventricular wall thicker than in Group I,[1]; 12 months,30%
same,relative weight of the heart higher than in Group I (control),[1]; 12 months,36%
same,QRS-T angle 120° to 180°,[1]; 12 months after surgery,5
same,Relative weight of Heart,[1]; 12 months after surgery,387 ± 9.5 mg/100 g
same,Thickness of Left Ventricular Wall,[1]; 12 months after surgery,3.9 ± 0.14 mm
same,VGC QRS Amplitude,[1]; 12 months after surgery,3.2 ± 0.12 mV
same,VGC QRS Area,[1]; 12 months after surgery,8.3 ± 1.1 cm^2
same,VGC QRS Not closed,[1]; 12 months after surgery,58%
same,VGC T Amplitude,[1]; 12 months after surgery,0.6 ± 0.01 mV
same,Working capacity (min) 1½ months,"[1]; forced swimming, 1½ months after surgery (treatment began on the 45th day)",43 ± 4.6 min
same,Working capacity (min) 12 months,"[1]; forced swimming, 12 months after surgery, 10.5 months of treatment",16 ± 1.2 min and 16 ± 1.3 min
same,"appearance of the myocardium, light micrographs (FIG. 6)",[1]; haemotoxylin-eosin stained sections,normal appearance
same,rats that died during the experiment,"[1]; of 15 rats per group, untreated stenosis 8",3 rats
same,development of cardiac eccentric hypertrophy,[1]; prolonged administration,prevented development of cardiac eccentric hypertrophy
same,"ultrastructure of left ventricular myocardium, mitochondria (FIG. 7)","[1]; rat, in vivo",normal sized mitochondria
same,critical heart weight enhanced by,[1]; versus critical weight of rats with the same body weight,16%
same,Thickness of Left Ventricular Wall,[2]; Day 7,5.2 ± 0.72 mm
same,EKG R,"[2]; Day 7, 100 mg/kg BW each",4.1 ± 0.30 mm
same,NN of Animals With Necrosis,"[2]; Day 7, MI control 10",5
same,EKG Q,[2]; Day 7,1.1 ± 0.03 mm
same,EKG QRS,[2]; Day 14,0.068 ± 0.003 s
same,EKG R,[2]; Day 14,4.3 ± 0.28 mm
same,Thickness of Left Ventricular Wall,[2]; Day 14,5.6 ± 0.21 mm
same,NN of Animals With Necrosis,"[2]; Day 14, MI control 3",0
same,EKG Q,[2]; Day 14,0.8 ± 0.02 mm
same,reduction in necroses,"[2]; administered individually, 100 mg/kg",50%
same,hemorrhages or infiltration in the infarction zone,[2]; by the fourteenth day,virtually had no hemorrhages or infiltration in the infarction zone
same,restoration of EKG readings,[2]; by the seventh experimental day,nearly a complete restoration of the voltage of EKG waves and of the systolic index
same,Swimming lengths,"[3]; 12.5 mg/kg BW daily for 14 days intragastrically, within 30 minutes, control 24.9",33.9
same,increase in number of swimming lengths,"[3]; 12.5 mg/kg/body weight daily, 14 days",35.4%
same,Swimming lengths,"[3]; 25 mg/kg BW, 14 days",46.4
same,increase in number of swimming lengths,"[3]; 25 mg/kg/body weight daily, 14 days",85.6%
same,Swimming lengths,"[3]; 50 mg/kg BW, 14 days",39.6
same,increase in number of swimming lengths,"[3]; 50 mg/kg/body weight daily, 14 days",58.5%
same,Swimming lengths,"[3]; 100 mg/kg BW, 14 days",31.1
same,increase in number of swimming lengths,"[3]; 100 mg/kg/body weight daily, 14 days",24.3%
same,mean decrease of hepatic glycogen stores during the swimming exercise,[3]; controls 67.5% from baseline,24.5%
same,increased hepatic glycogen content,"[3]; inosine 25 mg/kg, potassium orotate 50 mg/kg, or combination",21%
